What was measured:
green foxtail [1] = test: Test Example 5: herbicidal effect by foliage application, plastic box (Table 20, symbol G); format: in vivo, green foxtail (Setaria viridis); details: foliage application, evaluated three weeks after application
Outline: (§1)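 Plants were sown into sterilized diluvial soil under about 1.5 cm cover and kept in a greenhouse at 25° C. to 30° C. Fourteen days on, foliage received an even spray of the diluted emulsion. Herbicidal or crop effect was judged three weeks afterwards.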

Japanese bulrush = test: Test Example 1: herbicidal activity, application before weed generation under submerged conditions (Table 16, symbol B); format: in vivo, Japanese bulrush (Schoenoplectus juncoides); details: 320 g/ha applied herbicide
Outline: (§2)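 Alluvial soil was flooded to 4 cm depth, weed seeds were sown mixed and 2.5-leaf rice seedlings were transplanted. On sowing day, the compound's emulsion, diluted in water to a set dose, was applied to the water surface. Plants grew at 25–30 °C and were scored 0–5 after three weeks.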

redroot pigweed [2] = test: Test Example 4: herbicidal effect by soil treatment (Table 19, symbol N); format: in vivo, redroot pigweed (Amaranthus retroflexus)
Outline: (§3)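 Pre-emergence style soil spray: seeds under ~1.5 cm sterilized diluvial soil received a uniform coat of emulsion diluted to the predetermined herbicide amount. Greenhouse 25–30° C; readout at week three on previously defined criteria.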

velvetleaf [3] = test: Test Example 4: herbicidal effect by soil treatment (Table 19, symbol M); format: in vivo, velvetleaf (Abutilon theophrasti)
Outline: as §3

green foxtail [4] = test: Test Example 4: herbicidal effect by soil treatment (Table 19, symbol G); format: in vivo, green foxtail (Setaria viridis)
Outline: as §3

late watergrass = test: Test Example 1: herbicidal activity, application before weed generation under submerged conditions (Table 16, symbol A); format: in vivo, late watergrass (Echinochloa oryzicola); details: 320 g/ha applied herbicide
Outline: as §2

persian speedwell [5] = test: Test Example 4: herbicidal effect by soil treatment (Table 19, symbol R); format: in vivo, Persian speedwell (Veronica persica)
Outline: as §3

chickweed [6] = test: Test Example 4: herbicidal effect by soil treatment (Table 19, symbol P); format: in vivo, common chickweed (Stellaria media)
Outline: as §3

southern crabgrass [7] = test: Test Example 4: herbicidal effect by soil treatment (Table 19, symbol F); format: in vivo, southern crabgrass (Digitaria ciliaris)
Outline: as §3

persian speedwell [8] = test: Test Example 5: herbicidal effect by foliage application, plastic box (Table 20, symbol R); format: in vivo, Persian speedwell (Veronica persica); details: foliage application, evaluated three weeks after application
Outline: as §1

velvetleaf [9] = test: Test Example 5: herbicidal effect by foliage application, plastic box (Table 20, symbol M); format: in vivo, velvetleaf (Abutilon theophrasti); details: foliage application, evaluated three weeks after application
Outline: as §1

windgrass [10] = test: Test Example 4: herbicidal effect by soil treatment (Table 19, symbol L); format: in vivo, windgrass (Apera spica-venti)
Outline: as §3

blackgrass [11] = test: Test Example 5: herbicidal effect by foliage application, plastic box (Table 20, symbol J); format: in vivo, blackgrass (Alopecurus myosuroides); details: foliage application, evaluated three weeks after application
Outline: as §1

barnyard grass [12] = test: Test Example 5: herbicidal effect by foliage application, plastic box (Table 20, symbol H); format: in vivo, barnyard grass (Echinochloa crus-galli); details: foliage application, evaluated three weeks after application
Outline: as §1

barnyard grass [13] = test: Test Example 3: herbicidal effect by foliage application, Wagner pot (Table 18, symbol H); format: in vivo, barnyard grass (Echinochloa crus-galli)
Outline: (§4)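 Plants were sown in alluvial soil held under 0.1–0.5 cm standing water and grown 14 days in a greenhouse at 25–30 °C. An emulsifiable formulation, water-diluted to the set dose, was then sprayed onto the foliage, and effects were scored three weeks later using previously defined criteria.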

wild oat [14] = test: Test Example 4: herbicidal effect by soil treatment (Table 19, symbol I); format: in vivo, wild oat (Avena fatua)
Outline: as §3

rice flat sedge = test: Test Example 3: herbicidal effect by foliage application, Wagner pot (Table 18, symbol E); format: in vivo, rice flat sedge (Cyperus iria)
Outline: as §4

lambsquarters [15] = test: Test Example 4: herbicidal effect by soil treatment (Table 19, symbol O); format: in vivo, lambsquarters (Chenopodium album)
Outline: as §3

Italian ryegrass [16] = test: Test Example 5: herbicidal effect by foliage application, plastic box (Table 20, symbol K); format: in vivo, Italian ryegrass (Lolium multiflorum); details: foliage application, evaluated three weeks after application
Outline: as §1

false cleavers = test: Test Example 5: herbicidal effect by foliage application, plastic box (Table 20, symbol Q); format: in vivo, false cleavers (Galium spurium); details: foliage application, evaluated three weeks after application
Outline: as §1

southern crabgrass [17] = test: Test Example 5: herbicidal effect by foliage application, plastic box (Table 20, symbol F); format: in vivo, southern crabgrass (Digitaria ciliaris); details: foliage application, evaluated three weeks after application
Outline: as §1

Italian ryegrass [18] = test: Test Example 4: herbicidal effect by soil treatment (Table 19, symbol K); format: in vivo, Italian ryegrass (Lolium multiflorum)
Outline: as §3

redroot pigweed [19] = test: Test Example 5: herbicidal effect by foliage application, plastic box (Table 20, symbol N); format: in vivo, redroot pigweed (Amaranthus retroflexus); details: foliage application, evaluated three weeks after application
Outline: as §1

oval-leafed pondweed = test: Test Example 1: herbicidal activity, application before weed generation under submerged conditions (Table 16, symbol C); format: in vivo, oval-leafed pondweed (Monochoria vaginalis); details: 320 g/ha applied herbicide
Outline: as §2

wild oat [20] = test: Test Example 5: herbicidal effect by foliage application, plastic box (Table 20, symbol I); format: in vivo, wild oat (Avena fatua); details: foliage application, evaluated three weeks after application
Outline: as §1

Chinese sprangletop = test: Test Example 3: herbicidal effect by foliage application, Wagner pot (Table 18, symbol D); format: in vivo, chinese sprangletop (Leptochloa chinensis)
Outline: as §4

lambsquarters [21] = test: Test Example 5: herbicidal effect by foliage application, plastic box (Table 20, symbol O); format: in vivo, lambsquarters (Chenopodium album); details: foliage application, evaluated three weeks after application
Outline: as §1

chickweed [22] = test: Test Example 5: herbicidal effect by foliage application, plastic box (Table 20, symbol P); format: in vivo, common chickweed (Stellaria media); details: foliage application, evaluated three weeks after application
Outline: as §1

barnyard grass [23] = test: Test Example 4: herbicidal effect by soil treatment (Table 19, symbol H); format: in vivo, barnyard grass (Echinochloa crus-galli)
Outline: as §3

blackgrass [24] = test: Test Example 4: herbicidal effect by soil treatment (Table 19, symbol J); format: in vivo, blackgrass (Alopecurus myosuroides)
Outline: as §3

windgrass [25] = test: Test Example 5: herbicidal effect by foliage application, plastic box (Table 20, symbol L); format: in vivo, windgrass (Apera spica-venti); details: foliage application, evaluated three weeks after application
Outline: as §1

[26] = amount of applied herbicide 320 g/ha

COc1cc(F)ccc1-c1sc2ccc(F)cc2c1-c1c(O)c(C)nn(C)c1=O [2-083]
herbicidal effect on G: green foxtail (green foxtail [1]; 320 g/ha): 5 (Herbicidal rate of 90% or more (almost completely withered)) | Herbicidal effect on B: Japanese bulrush (grade 0-5) (Japanese bulrush): 1 (Herbicidal rate of 5% or more and less than 20%) | herbicidal effect rating, N: redroot pigweed (redroot pigweed [2]; 320 g/ha): 5 (Herbicidal rate of 90% or more (almost completely withered)) | herbicidal effect rating, M: velvetleaf (velvetleaf [3]; 320 g/ha): 2 (Herbicidal rate of 20% or more and less than 40%) | herbicidal effect rating, G: green foxtail (green foxtail [4]; 320 g/ha): 2 (Herbicidal rate of 20% or more and less than 40%) | Herbicidal effect on A: late watergrass (grade 0-5) (late watergrass): 2 (Herbicidal rate of 20% or more and less than 40%) | herbicidal effect rating, R: persian speedwell (persian speedwell [5]; 320 g/ha): 4 (Herbicidal rate of 70% or more and less than 90%) | herbicidal effect rating, P: chickweed (chickweed [6]; 320 g/ha): 4 (Herbicidal rate of 70% or more and less than 90%) | herbicidal effect rating, F: southern crabgrass (southern crabgrass [7]; 320 g/ha): 4 (Herbicidal rate of 70% or more and less than 90%) | herbicidal effect on R: persian speedwell (persian speedwell [8]; 320 g/ha): 5 (Herbicidal rate of 90% or more (almost completely withered)) | herbicidal effect on M: velvetleaf (velvetleaf [9]; 320 g/ha): 5 (Herbicidal rate of 90% or more (almost completely withered)) | herbicidal effect rating, L: windgrass (windgrass [10]; 320 g/ha): 4 (Herbicidal rate of 70% or more and less than 90%) | herbicidal effect on J: blackgrass (blackgrass [11]; 320 g/ha): 5 (Herbicidal rate of 90% or more (almost completely withered)) | herbicidal effect on H: barnyard grass (barnyard grass [12]; 320 g/ha): 5 (Herbicidal rate of 90% or more (almost completely withered)) | herbicidal effect on H (barnyard grass), rating 0-5 (barnyard grass [13]; 320 g/ha): 5 (Herbicidal rate of 90% or more (almost completely withered)) | herbicidal effect rating, I: wild oat (wild oat [14]; 320 g/ha): 3 (Herbicidal rate of 40% or more and less than 70%) | herbicidal effect on E (rice flat sedge), rating 0-5 (rice flat sedge; 320 g/ha): 5 (Herbicidal rate of 90% or more (almost completely withered)) | herbicidal effect rating, O: lambsquarters (lambsquarters [15]; 320 g/ha): 5 (Herbicidal rate of 90% or more (almost completely withered)) | herbicidal effect on K: Italian ryegrass (Italian ryegrass [16]; 320 g/ha): 4 (Herbicidal rate of 70% or more and less than 90%) | herbicidal effect on Q: false cleavers (false cleavers; 320 g/ha): 5 (Herbicidal rate of 90% or more (almost completely withered)) | herbicidal effect on F: southern crabgrass (southern crabgrass [17]; 320 g/ha): 4 (Herbicidal rate of 70% or more and less than 90%) | herbicidal effect rating, K: Italian ryegrass (Italian ryegrass [18]; 320 g/ha): 0 (Herbicidal rate of 5% or less (almost no effect)) | herbicidal effect on N: redroot pigweed (redroot pigweed [19]; 320 g/ha): 5 (Herbicidal rate of 90% or more (almost completely withered)) | Herbicidal effect on C: oval-leafed pondweed (grade 0-5) (oval-leafed pondweed): 3 (Herbicidal rate of 40% or more and less than 70%) | herbicidal effect on I: wild oat (wild oat [20]; 320 g/ha): 5 (Herbicidal rate of 90% or more (almost completely withered)) | herbicidal effect on D (Chinese sprangletop), rating 0-5 (Chinese sprangletop; 320 g/ha): 4 (Herbicidal rate of 70% or more and less than 90%) | herbicidal effect on O: lambsquarters (lambsquarters [21]; 320 g/ha): 5 (Herbicidal rate of 90% or more (almost completely withered)) | herbicidal effect on P: chickweed (chickweed [22]; 320 g/ha): 5 (Herbicidal rate of 90% or more (almost completely withered)) | herbicidal effect rating, H: barnyard grass (barnyard grass [23]; 320 g/ha): 1 (Herbicidal rate of 5% or more and less than 20%) | herbicidal effect rating, J: blackgrass (blackgrass [24]; 320 g/ha): 5 (Herbicidal rate of 90% or more (almost completely withered)) | herbicidal effect on L: windgrass (windgrass [25]; 320 g/ha): 5 (Herbicidal rate of 90% or more (almost completely withered))

Cc1nn(C)c(=O)c(-c2c(-c3ccc(OC(F)F)cc3)sc3ccc(F)cc23)c1OS(=O)(=O)c1ccc(Cl)cc1 [2-311]
G: green foxtail, herbicidal effect (criteria 0-5) (green foxtail [1]; AAH 320 g/ha): 5 (Herbicidal rate of 90% or more (almost completely withered)) | Herbicidal effect on B: Japanese bulrush (grade 0-5) (Japanese bulrush): 3 (Herbicidal rate of 40% or more and less than 70%) | herbicidal effect on N: redroot pigweed (redroot pigweed [2]; [26]): 4 (Herbicidal rate of 70% or more and less than 90%) | herbicidal effect on M: velvetleaf (velvetleaf [3]; [26]): 2 (Herbicidal rate of 20% or more and less than 40%) | herbicidal effect on G: green foxtail (green foxtail [4]; [26]): 0 (Herbicidal rate of 5% or less (almost no effect)) | Herbicidal effect on A: late watergrass (grade 0-5) (late watergrass): 3 (Herbicidal rate of 40% or more and less than 70%) | herbicidal effect on R: persian speedwell (persian speedwell [5]; [26]): 4 (Herbicidal rate of 70% or more and less than 90%) | herbicidal effect on P: chickweed (chickweed [6]; [26]): 3 (Herbicidal rate of 40% or more and less than 70%) | herbicidal effect on F: southern crabgrass (southern crabgrass [7]; [26]): 0 (Herbicidal rate of 5% or less (almost no effect)) | R: persian speedwell, herbicidal effect (criteria 0-5) (persian speedwell [8]; AAH 320 g/ha): 5 (Herbicidal rate of 90% or more (almost completely withered)) | M: velvetleaf, herbicidal effect (criteria 0-5) (velvetleaf [9]; AAH 320 g/ha): 5 (Herbicidal rate of 90% or more (almost completely withered)) | herbicidal effect on L: windgrass (windgrass [10]; [26]): 0 (Herbicidal rate of 5% or less (almost no effect)) | J: blackgrass, herbicidal effect (criteria 0-5) (blackgrass [11]; AAH 320 g/ha): 3 (Herbicidal rate of 40% or more and less than 70%) | H: barnyard grass, herbicidal effect (criteria 0-5) (barnyard grass [12]; AAH 320 g/ha): 5 (Herbicidal rate of 90% or more (almost completely withered)) | herbicidal effect on H: barnyard grass (barnyard grass [13]; [26]): 5 (Herbicidal rate of 90% or more (almost completely withered)) | herbicidal effect on I: wild oat (wild oat [14]; [26]): 0 (Herbicidal rate of 5% or less (almost no effect)) | herbicidal effect on E: rice flat sedge (rice flat sedge; [26]): 4 (Herbicidal rate of 70% or more and less than 90%) | herbicidal effect on O: lambsquarters (lambsquarters [15]; [26]): 5 (Herbicidal rate of 90% or more (almost completely withered)) | K: Italian ryegrass, herbicidal effect (criteria 0-5) (Italian ryegrass [16]; AAH 320 g/ha): 5 (Herbicidal rate of 90% or more (almost completely withered)) | Q: false cleavers, herbicidal effect (criteria 0-5) (false cleavers; AAH 320 g/ha): 5 (Herbicidal rate of 90% or more (almost completely withered)) | F: southern crabgrass, herbicidal effect (criteria 0-5) (southern crabgrass [17]; AAH 320 g/ha): 2 (Herbicidal rate of 20% or more and less than 40%) | herbicidal effect on K: Italian ryegrass (Italian ryegrass [18]; [26]): 4 (Herbicidal rate of 70% or more and less than 90%) | N: redroot pigweed, herbicidal effect (criteria 0-5) (redroot pigweed [19]; AAH 320 g/ha): 5 (Herbicidal rate of 90% or more (almost completely withered)) | Herbicidal effect on C: oval-leafed pondweed (grade 0-5) (oval-leafed pondweed): 3 (Herbicidal rate of 40% or more and less than 70%) | I: wild oat, herbicidal effect (criteria 0-5) (wild oat [20]; AAH 320 g/ha): 3 (Herbicidal rate of 40% or more and less than 70%) | herbicidal effect on D: Chinese sprangletop (Chinese sprangletop; [26]): 2 (Herbicidal rate of 20% or more and less than 40%) | O: lambsquarters, herbicidal effect (criteria 0-5) (lambsquarters [21]; AAH 320 g/ha): 5 (Herbicidal rate of 90% or more (almost completely withered)) | P: chickweed, herbicidal effect (criteria 0-5) (chickweed [22]; AAH 320 g/ha): 5 (Herbicidal rate of 90% or more (almost completely withered)) | herbicidal effect on H: barnyard grass (barnyard grass [23]; [26]): 0 (Herbicidal rate of 5% or less (almost no effect)) | herbicidal effect on J: blackgrass (blackgrass [24]; [26]): 0 (Herbicidal rate of 5% or less (almost no effect)) | L: windgrass, herbicidal effect (criteria 0-5) (windgrass [25]; AAH 320 g/ha): 4 (Herbicidal rate of 70% or more and less than 90%)
